# From patent publication US8765779B2, “Tricyclic derivatives and their pharmaceutical use and compositions” (Cephalon, Inc., priority 2009, dated 2014)
# Like-named read-outs stand apart in the source and are kept apart here.
# Biological target: T1, human 5-HT6 receptor (Homo sapiens, UniProt P50406)
# T1 construct: host or cells: CHO-K1 cells, stably transfected; membranes prepared in house
# Experiment: Human 5-HT6 Receptor Binding Assay ([3H]LSD displacement, scintillation beads)
# Settings: membranes of CHO-K1 cells with recombinant human 5-HT6, 4 nM [3H]LSD, read-out: h5-HT6 (Ki)
# T1 sequence (P50406 whole entry): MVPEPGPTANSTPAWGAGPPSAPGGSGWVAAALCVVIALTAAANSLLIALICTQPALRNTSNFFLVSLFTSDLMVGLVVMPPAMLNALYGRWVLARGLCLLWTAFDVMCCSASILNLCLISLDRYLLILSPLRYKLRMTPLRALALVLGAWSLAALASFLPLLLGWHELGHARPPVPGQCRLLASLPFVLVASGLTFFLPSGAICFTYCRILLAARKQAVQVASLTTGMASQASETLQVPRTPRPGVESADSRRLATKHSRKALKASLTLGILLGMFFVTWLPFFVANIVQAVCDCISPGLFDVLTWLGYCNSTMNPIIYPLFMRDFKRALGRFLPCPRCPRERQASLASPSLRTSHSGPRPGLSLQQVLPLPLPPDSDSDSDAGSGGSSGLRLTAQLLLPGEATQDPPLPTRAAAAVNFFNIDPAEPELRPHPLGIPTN
Compound,"Ki (Table 1, class symbols)",Ki (specific data)
Cc1cccc(S(=O)(=O)c2ccc3c(c2)OC2CNCCC32)n1 (stereo not drawn) [Example 328],< 500 nM,–
O=S(=O)(c1cc[n+]([O-])cc1)c1ccc2c(c1)OC1CNCCC21 (stereo not drawn) [Example 329],> 1000 nM,–
O=S(=O)(c1ccncc1)c1ccc2c(c1)OC1CNCCC21 (stereo not drawn) [Example 330],> 1000 nM,–
O=S(=O)(c1ccc2c(c1)OC1CNCCC21)c1ccccn1 (stereo not drawn) [Example 331],500 to 1000 nM,–
O=S(=O)(c1ccc2c(c1)OC1CNCCC21)c1cccc2cccnc12 (stereo not drawn) [Example 332],< 500 nM,–
O=S(=O)(c1ccc2c(c1)OC1CNCCC21)c1cccc2cccnc12 (stereo not drawn) [Example 333],< 500 nM,–
"O=S(=O)(c1ccccc1)c1ccc2c(c1)C1CCNCC1O2 (stereo not drawn) [Example 334, 6-(phenylsulfonyl)-1,2,3,4,4a,9a-hexahydro[1]benzofuro[2,3-c]pyridine]",500 to 1000 nM,–
O=S(=O)(c1ccc(Cl)cc1)c1ccc2c(c1)C1CCNCC1O2 (stereo not drawn) [Example 335],> 1000 nM,–
COc1ccc(S(=O)(=O)c2ccc3c(c2)C2CCNCC2O3)cc1 (stereo not drawn) [Example 336],> 1000 nM,–
"O=S(=O)(c1ccccc1)c1ccc2c(c1)C1CCNCC1O2 (stereo not drawn) [Example 337, 6-(phenylsulfonyl)-1,2,3,4,4a,9a-hexahydro[1]benzofuro[2,3-c]pyridine]",> 1000 nM,–
O=S(=O)(c1cccc(Cl)c1Cl)c1cccc2c1OC1CNCCC21 (stereo not drawn) [Example 338],< 500 nM,–
"O=S(=O)(c1ccccc1)c1ccc2c3c(oc2c1)CNCC3 [Example 339, 7-(phenylsulfonyl)-1,2,3,4-tetrahydro[1]benzofuro[2,3-c]pyridine]",< 500 nM,–
"O=S(=O)(c1cccc(Cl)c1)c1ccc2c3c(oc2c1)CNCC3 [Example 340, 7-[(3-chlorophenyl)sulfonyl]-1,2,3,4-tetrahydro[1]benzofuro[2,3-c]pyridine]",< 500 nM,–
O=S(=O)(c1cccc(F)c1)c1ccc2c3c(oc2c1)CNCC3 [Example 341],< 500 nM,–
Nc1cccc(S(=O)(=O)c2ccc3c4c(oc3c2)CNCC4)c1 [Example 342],< 500 nM,–
"Cc1cccc(S(=O)(=O)c2ccc3c4c(oc3c2)CNCC4)n1 [Example 343, 7-[(6-methylpyridin-2-yl)sulfonyl]-1,2,3,4-tetrahydro[1]benzofuro[2,3-c]pyridine]",< 500 nM,6.6 nM
O=S(=O)(c1ccncc1)c1ccc2c3c(oc2c1)CNCC3 [Example 344],500 to 1000 nM,–
O=S(=O)(c1ccc2c3c(oc2c1)CNCC3)c1ccccn1 [Example 345],< 500 nM,–
O=S(=O)(c1ccc2c3c(oc2c1)CNCC3)c1cccc2cccnc12 [Example 346],< 500 nM,–
CN(C)c1cccc(S(=O)(=O)c2ccc3c4c(oc3c2)CNCC4)c1 [Example 347],< 500 nM,–

Compound,"Ki (Table 1, class symbols)",Ki (specific data)
O=S(=O)(c1ccccc1)c1ccc2oc3c(c2c1)CCNC3 [Example 348],< 500 nM,–
Nc1cccc(S(=O)(=O)c2ccc3oc4c(c3c2)CCNC4)c1 [Example 349],< 500 nM,–
Cc1cccc(S(=O)(=O)c2ccc3oc4c(c3c2)CCNC4)n1 [Example 350],< 500 nM,–
O=S(=O)(c1cc[n+]([O-])cc1)c1ccc2oc3c(c2c1)CCNC3 [Example 351],> 1000 nM,–
O=S(=O)(c1ccncc1)c1ccc2oc3c(c2c1)CCNC3 [Example 352],> 1000 nM,–
CC12CCNCC1Oc1cc(S(=O)(=O)c3ccc(F)cc3)ccc12 (stereo not drawn) [Example 356],500 to 1000 nM,–
CC12CCNCC1Oc1cc(S(=O)(=O)c3cccc(C(F)(F)F)c3)ccc12 (stereo not drawn) [Example 357],< 500 nM,–
"CC12CCNCC1Oc1cc(S(=O)(=O)c3cccc(OC(F)(F)F)c3)ccc12 (stereo not drawn) [Example 358, 4a-methyl-7-{[3-(trifluoromethoxy)phenyl]sulfo-nyl}-1,2,3,4,4a,9a-hexahydro[1]benzofuro[2,3-c]pyridine]",< 500 nM,–
CC12CCNCC1Oc1cc(S(=O)(=O)c3cc(F)cc(F)c3)ccc12 (stereo not drawn) [Example 359],< 500 nM,–
O=S(=O)(c1ccc2c(c1)OC1CNCCC21)c1cccnc1F (stereo not drawn) [Example 382],< 500 nM,–
[O-][S+](c1ccc2c(c1)OC1CNCCC21)c1cccnc1F (stereo not drawn) [Example 383],> 1000 nM,–
[O-][S+](c1ccc2c(c1)OC1CNCCC21)c1cccnc1Cl (stereo not drawn) [Example 389],> 1000 nM,–
O=S(=O)(c1ccc2c(c1)OC1CNCCC21)c1cccnc1Cl (stereo not drawn) [Example 390],< 500 nM,–
[O-][S+](c1cncc(Cl)c1)c1ccc2c(c1)OC1CNCCC21 (stereo not drawn) [Example 391],> 1000 nM,–
O=S(=O)(c1cncc(Cl)c1)c1ccc2c(c1)OC1CNCCC21 (stereo not drawn) [Example 392],< 500 nM,–
O=S(=O)(c1cccnc1)c1ccc2c(c1)OC1CNCCC21 (stereo not drawn) [Example 393],> 1000 nM,–
[O-][S+](c1cncc(F)c1)c1ccc2c(c1)OC1CNCCC21 (stereo not drawn) [Example 396],> 1000 nM,–
O=S(=O)(c1cncc(F)c1)c1ccc2c(c1)OC1CNCCC21 (stereo not drawn) [Example 397],> 1000 nM,–
O=S(=O)(c1ccc2c(c1)OC1CNCCC21)c1cccnc1F (stereo not drawn) [Example 398],< 500 nM,–

# Other lines, results leading:
"Ki (Table 1, class symbols)",Ki (specific data),Compound
< 500 nM,–,O=S(=O)(c1ccc2oc3c(c2c1)CCNC3)c1ccccn1 [Example 353]
< 500 nM,–,O=S(=O)(c1ccc2oc3c(c2c1)CCNC3)c1cccc2cccnc12 [Example 354]
> 1000 nM,–,CN(C)c1cccc(S(=O)(=O)c2ccc3oc4c(c3c2)CCNC4)c1 [Example 355]
< 500 nM,–,CC1(C)NCCc2c1oc1cc(S(=O)(=O)c3cccc(F)c3F)ccc21 [Example 365]
< 500 nM,–,CC1(C)NCCc2c1oc1cc(S(=O)(=O)c3cc[nH]c(=O)c3)ccc21 [Example 366]
< 500 nM,–,CC1(C)NCCc2c1oc1cc(S(=O)(=O)c3cncc(Br)c3)ccc21 [Example 367]
< 500 nM,–,CC1(C)NCCc2c1oc1cc(S(=O)(=O)c3cccnc3N3CCOCC3)ccc21 [Example 368]
> 1000 nM,–,COc1cc(S(=O)(=O)c2ccc3c4c(oc3c2)C(C)(C)NCC4)c[n+]([O-])c1 [Example 369]
< 500 nM,–,COc1cncc(S(=O)(=O)c2ccc3c4c(oc3c2)C(C)(C)NCC4)c1 [Example 370]
< 500 nM,–,CC1(C)NCCc2c1oc1cc(S(=O)(=O)c3cc(Cl)c[n+]([O-])c3N)ccc21 [Example 371]
< 500 nM,–,CC1(C)NCCc2c1oc1cc(S(=O)(=O)c3cc(Cl)cnc3N)ccc21 [Example 372]
> 1000 nM,–,CC1(C)NCCc2c1oc1cc(S(=O)(=O)c3cc(Cl)cnc3O)ccc21 [Example 373]
> 1000 nM,–,Cc1c(S(=O)(=O)c2ccc3c4c(oc3c2)C(C)(C)NCC4)ccc[n+]1[O-] [Example 374]
< 500 nM,–,Cc1ncccc1S(=O)(=O)c1ccc2c3c(oc2c1)C(C)(C)NCC3 [Example 375]
< 500 nM,–,CC1(C)NCCc2c1oc1cc(S(=O)(=O)c3cncc(Cl)c3)ccc21 [Example 376]
> 1000 nM,–,CC1(C)NCCc2c1oc1cc(S(=O)(=O)c3c[nH]c(=O)c(C(F)(F)F)c3)ccc21 [Example 377]
< 500 nM,–,CC1(C)NCCc2c1oc1cc(S(=O)(=O)c3cccnc3C(F)(F)F)ccc21 [Example 378]
< 500 nM,–,Cc1ccncc1S(=O)(=O)c1ccc2c3c(oc2c1)C(C)(C)NCC3 [Example 379]
> 1000 nM,–,CC1(C)NCCc2c1oc1cc(S(=O)(=O)c3ccc(N4CCCC4)nc3)ccc21 [Example 380]
< 500 nM,–,CC1(C)NCCc2c1oc1cc(S(=O)(=O)c3cncc(F)c3)ccc21 [Example 381]
< 500 nM,–,[O-][S+](c1ccc2c(c1)OC1CNCCC21)c1cccc(F)c1F (stereo not drawn) [Example 384]
> 1000 nM,–,[O-][S+](c1ccc2c(c1)OC1CNCCC21)c1cc(F)cc(F)c1F (stereo not drawn) [Example 385]

"Ki (Table 1, class symbols)",Ki (specific data),Compound
< 500 nM,–,O=S(=O)(c1ccc2c(c1)OC1CNCCC21)c1cc(F)cc(F)c1F (stereo not drawn) [Example 386]
> 1000 nM,–,COC(=O)c1cc(Cl)cc(S(=O)(=O)c2ccc3c(c2)OC2CNCCC32)c1 (stereo not drawn) [Example 387]
< 500 nM,–,O=S(=O)(c1ccc2c(c1)OC1CNCCC21)c1cccc(F)c1F (stereo not drawn) [Example 388]
< 500 nM,–,O=S(=O)(c1ccc2c(c1)OC1CNCCC21)c1cccnc1OCC(F)(F)F (stereo not drawn) [Example 394]
< 500 nM,–,O=S(=O)(c1ccc2c(c1)OC1CNCCC21)c1cccnc1OCC(F)(F)F (stereo not drawn) [Example 395]
< 500 nM,–,O=S(=O)(c1ccc2c(c1)OC1CNCCC21)c1cccc(F)c1F (stereo not drawn) [Example 399]
< 500 nM,–,O=S(=O)(c1ccc2c(c1)OC1CNCCC21)c1cc(F)cc(F)c1F (stereo not drawn) [Example 400]
< 500 nM,–,CCOc1cc(F)cc(S(=O)(=O)c2ccc3c(c2)OC2CNCCC32)c1 (stereo not drawn) [Example 401]
< 500 nM,–,CC(C)COc1cc(F)cc(S(=O)(=O)c2ccc3c(c2)OC2CNCCC32)c1 (stereo not drawn) [Example 402]
< 500 nM,–,O=S(=O)(c1cc(F)cc(OCC(F)(F)F)c1)c1ccc2c(c1)OC1CNCCC21 (stereo not drawn) [Example 403]
< 500 nM,–,COc1cccc(S(=O)(=O)c2ccc3c(c2)OC2CNCCC32)c1F (stereo not drawn) [Example 404]
500 to 1000 nM,–,O=S(=O)(c1ccc2c(c1)OC1CNCCC21)c1cccc2c1CCO2 (stereo not drawn) [Example 405]
< 500 nM,–,CC(C)Oc1ccccc1S(=O)(=O)c1ccc2c(c1)OC1CNCCC21 (stereo not drawn) [Example 406]
< 500 nM,–,COc1cc(F)cc(S(=O)(=O)c2ccc3c(c2)OC2CNCCC32)c1 (stereo not drawn) [Example 407]
< 500 nM,–,O=S(=O)(c1ccc2c(c1)OC1CNCCC21)c1ccccc1OCC(F)(F)F (stereo not drawn) [Example 408]
< 500 nM,–,O=S(=O)(c1ccc2c(c1)OC1CNCCC21)c1cccc(Cl)c1F (stereo not drawn) [Example 409]
500 to 1000 nM,–,O=S(=O)(c1ccc2c(c1)OC1CNCCC21)c1cccnc1C(F)(F)F (stereo not drawn) [Example 410]
< 500 nM,–,O=S(=O)(c1ccc2c(c1)OC1CNCCC21)c1cccc(F)c1F (stereo not drawn) [Example 411]
< 500 nM,–,O=S(=O)(c1ccc2c(c1)OC1CNCCC21)c1cc(F)cc(F)c1F (stereo not drawn) [Example 412]
< 500 nM,–,CCOc1cc(F)cc(S(=O)(=O)c2ccc3c(c2)OC2CNCCC32)c1 (stereo not drawn) [Example 413]
< 500 nM,–,CC(C)COc1cc(F)cc(S(=O)(=O)c2ccc3c(c2)OC2CNCCC32)c1 (stereo not drawn) [Example 414]
< 500 nM,–,O=S(=O)(c1cc(F)cc(OCC(F)(F)F)c1)c1ccc2c(c1)OC1CNCCC21 (stereo not drawn) [Example 415]
